Columns and labels:
Assay in all cases: relative viability (nuclei count vs DMSO), 5 days (fraction); higher = more cells survive
Temozolomide = compound: Cn1nnc2c(C(N)=O)ncn2c1=O [Temozolomide]
Summary of the method: (§1)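 Only plates meeting two conditions passed: control CV below 25% and at least one doubling. Lung cancer cell lines, kept overnight at 37 °C in 1536-well plates, were pinned with five library-drug doses (not always all listed) √10 apart on vehicle-anchored plates and grown 5 days without medium change. A one-step fix, permeabilisation and Hoechst stain preceded 4× imaging and MetaXpress nuclear counting. Viability equals treated-well nuclei divided by vehicle-well nuclei, as the median over plates.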

AZD5582 = compound: C[C@@H](C(=O)N[C@@H](C1CCCCC1)C(=O)N2CCC[C@H]2C(=O)N[C@@H]3[C@@H](CC4=CC=CC=C34)OCC#CC#CCO[C@@H]5CC6=CC=CC=C6[C@@H]5NC(=O)[C@@H]7CCCN7C(=O)[C@H](C8CCCCC8)NC(=O)[C@H](C)NC)NC [AZD5582]
Summary of the method: as §1

[1] = compound: Cn1nnc2c(C(N)=O)ncn2c1=O [Temozolomide] + C[C@]1(O)C[C@@H](c2nc(-c3ccc4ccc(-c5ccccc5)nc4c3)c3c(N)nccn32)C1 [Linsitinib] (partner 1 µM)
Summary of the method: (§2)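 Cells from lung cancer lines were seeded into 1536-well plates and, one day later, dosed by pin tool. Treatments were either a single drug or a fixed dose of an anchor drug with five library-drug doses (not always all listed) in √10 steps. After 5 days, nuclei were stained in a one-step fixation (final 0.05% Triton X-100, 1% formaldehyde, 1 ug/ml Hoechst) and counted on 4× images, and relative viability is the treated-to-vehicle nuclei ratio, as the median of duplicate plates.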

AZD5582 + AZD7762 = compound: C[C@@H](C(=O)N[C@@H](C1CCCCC1)C(=O)N2CCC[C@H]2C(=O)N[C@@H]3[C@@H](CC4=CC=CC=C34)OCC#CC#CCO[C@@H]5CC6=CC=CC=C6[C@@H]5NC(=O)[C@@H]7CCCN7C(=O)[C@H](C8CCCCC8)NC(=O)[C@H](C)NC)NC [AZD5582] + NC(=O)Nc1cc(-c2cccc(F)c2)sc1C(=O)N[C@H]1CCCNC1 [AZD7762] (partner 0.2 µM); settings: first compound 0.05 µM
Summary of the method: as §2

Temozolomide + Foretinib = compound: Cn1nnc2c(C(N)=O)ncn2c1=O [Temozolomide] + COc1cc2c(Oc3ccc(NC(=O)C4(C(=O)Nc5ccc(F)cc5)CC4)cc3F)ccnc2cc1OCCCN1CCOCC1 [Foretinib] (partner 0.25 µM)
Summary of the method: as §2

NCI-H1703
relative viability (Temozolomide; 0.2 µM): 0.986
relative viability (Temozolomide; 0.6325 µM): 0.947
relative viability (Temozolomide; 2 µM): 1.29
relative viability (Temozolomide; 6.325 µM): 0.825
relative viability (Temozolomide; 20 µM): 0.965
relative viability (AZD5582; 0.005 µM): 0.853
relative viability (AZD5582; 0.01581 µM): 0.952
relative viability (AZD5582; 0.05 µM): 0.925
relative viability ([1]; first compound 0.2 µM): 0.863
relative viability ([1]; first compound 0.6325 µM): 0.609
relative viability ([1]; first compound 2 µM): 1.32
relative viability ([1]; first compound 6.325 µM): 0.841
relative viability ([1]; first compound 20 µM): 0.95
relative viability (AZD5582 + AZD7762): 0.126
relative viability (Temozolomide + Foretinib; first compound 0.2 µM): 0.297
relative viability (Temozolomide + Foretinib; first compound 0.6325 µM): 0.35
relative viability (Temozolomide + Foretinib; first compound 2 µM): 0.401
relative viability (Temozolomide + Foretinib; first compound 6.325 µM): 0.281
relative viability (Temozolomide + Foretinib; first compound 20 µM): 0.374

Reference: the supplement of paper PMC10307832
